In patent US20160289702A1, “Biosynthetic Mint” (The University of Manchester, priority 2015, published 2016):

Legend:
His6-MNMR-His6 = assay: Steady-state kinetics, ketoreductase activity by NADPH oxidation monitoring; format: biochemical, Mentha piperita; settings: NADPH oxidation at 340 nm, 25° C., monoterpenoid 1 mM
Experimental: (§1) The concentration of nicotinamide coenzymes (Melford) was determined by the extinction coefficient method (ε340=[…]). Steady-state kinetic analyses were performed on a Cary UV-50 Bio UV/Vis scanning spectrophotometer using a quartz cuvette (1 mL; HelIma) with a 1 cm path length. Standard reactions (1 mL) were performed in buffer (50 mM Tris pH 7.0) containing NADPH (50-100 μM for MMR/MNMR and NtDBR, respectively), monoterpenoid (1 mM) and enzyme (30 nM to 2 μM). Reactions were followed by continuously monitoring NADPH oxidation at 340 nm for 1 min at 25° C. The standard monoterpenoid substrates used were pulegone for NtDBR (alkene reduction) and menthone/isomenthone for both MMR and MNMR (ketoreduction). Ketoreductase reactions were performed in an alternative buffer (12.5 mM tri-sodium citrate, 12.5 mM KH2PO4, 12.5 mM K2HPO4and 12.5 mM CHES) containing dithiothreitol (1 mM; DTT). All steady state reactions were performed in at least duplicate.
(§2) The cloning strategies enable the rapid generation and manipulation of multi-gene expression constructs from individual ‘components’, including the presence of repeated sequences of relatively high GC content. Initially, the three ‘mint’ pathway recombinant enzymes (NtDBR, MMR and MNMR) were purified, and preliminary biocatalytic ability of each was assessed to test their functionality when produced in a bacterial system. The three genes encoding these plant enzymes were first codon-optimised for E. coli and cloned into pET21b to generate C-His6-tagged recombinant enzymes. After production and purification, each enzyme was tested for activity under steady state conditions, via indirect NADPH oxidation monitoring.

MMR-His6 = assay: as above; format: biochemical, Mentha piperita; settings: NADPH oxidation at 340 nm, 25° C., monoterpenoid 1 mM
Experimental: as §1, §2

NtDBR-His6 = molecular target: T1, NtDBR-His6 (Nicotiana tabacum, UniProt Q9SLN8); assay: Steady-state kinetics, ene-reductase activity by NADPH oxidation monitoring; format: biochemical; settings: NADPH oxidation at 340 nm, 25° C., monoterpenoid 1 mM, 50 mM Tris pH 7.0
T1 construct: made in house; host or cells: E. coli BL21(DE3)pLysS
T1 sequence (Q9SLN8 whole entry): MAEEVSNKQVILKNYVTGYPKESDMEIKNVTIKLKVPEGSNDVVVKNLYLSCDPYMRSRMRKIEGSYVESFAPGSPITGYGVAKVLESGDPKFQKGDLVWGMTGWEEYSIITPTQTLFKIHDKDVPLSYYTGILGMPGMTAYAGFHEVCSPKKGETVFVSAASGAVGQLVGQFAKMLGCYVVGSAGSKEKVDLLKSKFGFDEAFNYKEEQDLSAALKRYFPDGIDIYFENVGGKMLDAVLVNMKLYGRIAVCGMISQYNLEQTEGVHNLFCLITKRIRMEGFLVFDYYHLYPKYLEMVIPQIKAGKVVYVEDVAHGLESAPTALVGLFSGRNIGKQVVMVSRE
Experimental: as §1
The cloning strategies enable the rapid generation and manipulation of multi-gene expression constructs from individual ‘components’, including the presence of repeated sequences of relatively high GC content. Initially, the three ‘mint’ pathway recombinant enzymes (NtDBR, MMR and MNMR) were purified, and preliminary biocatalytic ability of each was assessed to test their functionality when produced in a bacterial system. […]

MMR = settings: Davis et al. 2005; cited from earlier work

Row | Compound | Ketoreductase activity (His6-MNMR-His6) [s⁻¹] | Ketoreductase activity (MMR-His6) [s⁻¹] | ene-reductase activity (NtDBR-His6) [s⁻¹] | specificity for menthone over isomenthone (MMR) [fold]
1 | CC(C)[C@H]1CC[C@@H](C)CC1=O [(2R,5R)-isomenthone] | 0.20 | 2.00 | – | –
2 | CC(C)=C1CC[C@@H](C)CC1=O [(5R)-pulegone] | – | – | < 0.1 | –
3 | CC(C)[C@@H]1CC[C@@H](C)CC1=O [(2S,5R)-menthone, (2S,5R)-trans-2-Isopropyl-5-methylcyclohexanone] | 0.96 | 1.63 | – | 10
